Measured values reported in ChEMBL document CHEMBL1133860, “Synthesis and biological evaluation of a series of novel N- or O-fluoroalkyl derivatives of tropane: potential positron emission tomography (PET) imaging agents for the dopamine transporter” (Bioorg Med Chem Lett, 2001).

Columns and labels:
[1] = system: Monoamine transporters; Norepinephrine & dopamine; experiment: Selectivity for DAT determined as ratio of binding affinity for NET to that for DAT; assay type: protein assay
[2] = molecular target: Sodium-dependent serotonin transporter (Rattus norvegicus, UniProt P31652); experiment: Ability to displace [3H]- paroxetine from Serotonin transporter in rat cerebral cortical homogenate
Chain of Sodium-dependent serotonin transporter (P31652 whole entry): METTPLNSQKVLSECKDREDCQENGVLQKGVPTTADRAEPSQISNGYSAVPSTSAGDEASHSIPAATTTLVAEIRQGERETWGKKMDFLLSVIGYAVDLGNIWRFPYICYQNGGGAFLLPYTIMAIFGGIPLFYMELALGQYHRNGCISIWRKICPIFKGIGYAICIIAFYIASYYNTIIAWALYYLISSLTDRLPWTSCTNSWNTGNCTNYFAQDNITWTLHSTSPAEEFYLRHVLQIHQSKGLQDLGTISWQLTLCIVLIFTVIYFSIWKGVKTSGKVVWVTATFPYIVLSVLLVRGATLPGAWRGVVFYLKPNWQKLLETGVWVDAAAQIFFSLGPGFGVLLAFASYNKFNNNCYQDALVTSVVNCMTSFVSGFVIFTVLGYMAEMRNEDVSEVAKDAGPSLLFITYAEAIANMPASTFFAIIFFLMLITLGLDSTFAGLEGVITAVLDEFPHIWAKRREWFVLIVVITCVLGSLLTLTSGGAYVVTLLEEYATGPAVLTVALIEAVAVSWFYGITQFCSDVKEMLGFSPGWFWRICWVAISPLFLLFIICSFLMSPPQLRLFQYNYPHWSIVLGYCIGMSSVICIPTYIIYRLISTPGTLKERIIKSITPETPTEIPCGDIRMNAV

[3] = molecular target: Sodium-dependent dopamine transporter (Rattus norvegicus, UniProt P23977); experiment: Ability to displace [3H]- beta-CIT from Dopamine transporter in rat striatal homogenate
Chain of Sodium-dependent dopamine transporter (P23977 whole entry): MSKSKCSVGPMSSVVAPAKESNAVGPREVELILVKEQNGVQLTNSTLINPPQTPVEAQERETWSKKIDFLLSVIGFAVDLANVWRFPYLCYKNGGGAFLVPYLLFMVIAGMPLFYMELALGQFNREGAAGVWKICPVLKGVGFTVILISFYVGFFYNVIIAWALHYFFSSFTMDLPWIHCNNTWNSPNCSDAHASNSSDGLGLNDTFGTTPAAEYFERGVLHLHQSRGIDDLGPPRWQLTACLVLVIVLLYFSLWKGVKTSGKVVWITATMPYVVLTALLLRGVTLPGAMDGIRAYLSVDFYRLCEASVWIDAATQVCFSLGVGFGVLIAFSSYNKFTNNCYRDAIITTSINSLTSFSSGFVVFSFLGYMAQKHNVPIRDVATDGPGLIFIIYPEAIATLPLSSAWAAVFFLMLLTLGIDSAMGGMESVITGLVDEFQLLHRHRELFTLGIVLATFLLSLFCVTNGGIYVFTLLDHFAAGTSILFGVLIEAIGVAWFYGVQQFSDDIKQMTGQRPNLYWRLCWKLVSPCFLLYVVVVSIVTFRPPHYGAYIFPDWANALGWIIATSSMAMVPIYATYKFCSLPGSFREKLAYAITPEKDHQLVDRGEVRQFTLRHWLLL

[4] = system: Monoamine transporters; serotonin & dopamine; experiment: Selectivity for DAT determined as ratio of binding affinity for SERT to that for DAT; assay type: protein assay
[5] = molecular target: Norepinephrine transporter (Rattus norvegicus, UniProt Q9WTR4); experiment: Ability to displace [3H]- nisoxetin from Norepinephrine transporter in rat cerebral cortical homogenate
Chain of Norepinephrine transporter (Q9WTR4 whole entry): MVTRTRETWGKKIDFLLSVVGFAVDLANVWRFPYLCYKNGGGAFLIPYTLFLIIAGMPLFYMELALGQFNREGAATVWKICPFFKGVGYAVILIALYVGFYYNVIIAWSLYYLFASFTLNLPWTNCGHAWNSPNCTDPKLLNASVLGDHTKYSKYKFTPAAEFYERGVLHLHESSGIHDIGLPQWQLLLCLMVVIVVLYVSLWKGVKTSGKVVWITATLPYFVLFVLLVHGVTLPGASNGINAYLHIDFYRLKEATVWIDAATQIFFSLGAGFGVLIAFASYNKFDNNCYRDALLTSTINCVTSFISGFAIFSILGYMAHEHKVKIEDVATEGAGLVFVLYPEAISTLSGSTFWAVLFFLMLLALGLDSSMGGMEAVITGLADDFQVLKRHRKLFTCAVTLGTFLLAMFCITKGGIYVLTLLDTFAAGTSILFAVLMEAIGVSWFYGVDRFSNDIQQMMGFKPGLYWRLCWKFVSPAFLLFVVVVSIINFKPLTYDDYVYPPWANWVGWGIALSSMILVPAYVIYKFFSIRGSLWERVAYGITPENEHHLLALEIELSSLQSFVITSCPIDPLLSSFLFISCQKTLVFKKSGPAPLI

Structure (SMILES)	Selectivity ratio [1]	Ki [2] [nM]	Ki [3] [nM]	Selectivity ratio [4]	Ki [5] [nM]
Cc1ccc(C2CC3CCC(C2C(=O)OCCCF)N3C)cc1 (configuration not stated)	36.3	325	7.17	45.3	260
COC(=O)[C@@H]1C2CC[C@H](C[C@@H]1c1ccc(I)cc1)N2C	2.1		1.33	0.4	
COC(=O)C1C(c2ccc(I)cc2)CC2CCC1N2CCCF (configuration not stated)	7.6	1.68	8.29	0.2	
CN1C2CCC1C(C(=O)OCCF)C(c1ccc(I)cc1)C2 (configuration not stated)	112	1.65	0.93	1.1	173
COC(=O)C1C(c2ccc(Br)cc2)CC2CCC1N2CCCF (configuration not stated)	58.9	36.4	3.33	10.9	196
COC(=O)C1C(c2ccc(C)cc2)CC2CCC1N2CCF (configuration not stated)	8.4	375	32.1	11.7	268
COC(=O)C1C2CCC(CC1c1ccc(I)cc1)N2 (configuration not stated)	2.9	0.06	0.64	0.1	1.85
O=C(OCCF)C1C(c2ccc(I)cc2)CC2CCC1N2CCCF (configuration not stated)	83	13.3	8.71	1.5	723
COC(=O)C1C(c2ccc(C)cc2)CC2CCC1N2CCCF (configuration not stated)	32.1	1310	37.6	34.9	1210
CN1C2CCC1C(C(=O)OCCCF)C(c1ccc(I)cc1)C2 (configuration not stated)	112	1.65	1.54	1.1	173
